Measurements as given in ChEMBL document CHEMBL1909046, “DrugMatrix in vitro pharmacology data”.

Tests used:
[1] = DRUGMATRIX: Phorbol Ester radioligand binding (ligand: [3H] PDBu); format: cell membranes, Mus musculus, ICR, Brain, Membrane; conditions: Not Active = under 50% inhibition at 10 µM
[2] = DRUGMATRIX: GABAA, Flunitrazepam, Central radioligand binding (ligand: [3H] Flunitrazepam); format: cell membranes, Rattus norvegicus, Wistar, Brain, Membrane; conditions: Not Active = under 50% inhibition at 10 µM
Vasopressin V1a receptor = Vasopressin V1a receptor (Homo sapiens, UniProt P37288); format: cell membranes, Membrane; conditions: hek293; further: in other assays of this panel Not Active means under 50% inhibition at 10 µM
Progesterone receptor = biological target: T1, Progesterone receptor (Bos taurus, UniProt Q690N0); assay: DRUGMATRIX: Progesterone radioligand binding (ligand: [3H] R-5020); format: tissue-based, Uterus; conditions: Not Active = under 50% inhibition at 10 µM
T1 sequence (Q690N0 whole entry): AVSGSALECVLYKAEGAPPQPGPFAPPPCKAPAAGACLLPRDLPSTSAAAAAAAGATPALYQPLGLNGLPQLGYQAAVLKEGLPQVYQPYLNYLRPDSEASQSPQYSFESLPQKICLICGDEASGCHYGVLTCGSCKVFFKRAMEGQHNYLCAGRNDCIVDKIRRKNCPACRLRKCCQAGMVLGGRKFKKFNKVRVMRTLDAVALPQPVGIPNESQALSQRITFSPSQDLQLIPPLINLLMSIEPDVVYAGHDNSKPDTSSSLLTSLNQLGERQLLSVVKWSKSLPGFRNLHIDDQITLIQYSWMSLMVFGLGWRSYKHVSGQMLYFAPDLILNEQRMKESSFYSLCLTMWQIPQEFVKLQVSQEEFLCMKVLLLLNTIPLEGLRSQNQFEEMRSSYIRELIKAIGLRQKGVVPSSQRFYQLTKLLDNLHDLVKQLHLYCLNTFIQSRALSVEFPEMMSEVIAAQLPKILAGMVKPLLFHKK

Sequence of Vasopressin V1a receptor (P37288 whole entry): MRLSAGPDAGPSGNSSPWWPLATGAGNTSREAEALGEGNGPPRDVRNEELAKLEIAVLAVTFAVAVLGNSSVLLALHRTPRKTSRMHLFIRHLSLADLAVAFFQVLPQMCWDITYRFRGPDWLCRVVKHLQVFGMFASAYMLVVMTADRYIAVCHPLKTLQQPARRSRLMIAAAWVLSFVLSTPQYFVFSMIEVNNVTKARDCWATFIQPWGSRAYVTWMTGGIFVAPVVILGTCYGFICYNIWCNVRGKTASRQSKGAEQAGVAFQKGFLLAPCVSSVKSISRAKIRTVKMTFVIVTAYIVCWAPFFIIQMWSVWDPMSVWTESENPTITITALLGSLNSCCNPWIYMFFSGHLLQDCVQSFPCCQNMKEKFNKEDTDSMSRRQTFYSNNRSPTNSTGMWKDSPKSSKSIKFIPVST

SMILES | IC50 [1] | Ki [1] | IC50 [2] | Ki [2] | IC50 (Vasopressin V1a receptor) | IC50 (Progesterone receptor) | IC50 (Progesterone receptor; read-out: IC50) | Ki (Progesterone receptor; read-out: Ki)
C=C(CC)C(=O)c1ccc(OCC(=O)O)c(Cl)c1Cl [ETHACRYNIC ACID] | Not Active | Not Active | Not Active | Not Active | Not Active | Not Active |  | 
CC(C(=O)O)c1ccc(-c2ccccc2)c(F)c1 (centres undefined) [FLURBIPROFEN] | Not Active | Not Active | Not Active | Not Active | Not Active |  |  | 
COc1ccccc1OCC(O)COC(N)=O (centres undefined) [METHOCARBAMOL] | Not Active | Not Active | Not Active | Not Active | Not Active | Not Active |  | 
CC(C(=O)O)c1ccc(CC2CCCC2=O)cc1 (centres undefined) [LOXOPROFEN] | Not Active | Not Active | Not Active | Not Active | Not Active | Not Active |  | 
CCCCC1C(=O)N(c2ccccc2)N(c2ccccc2)C1=O [PHENYLBUTAZONE] | Not Active | Not Active | Not Active | Not Active | Not Active | Not Active |  | 
CCN[C@@H](C)Cc1cccc(C(F)(F)F)c1 [DEXFENFLURAMINE] | Not Active | Not Active | Not Active | Not Active | Not Active | Not Active |  | 
CCC(=O)O[C@H]1[C@H](O[C@@H]2[C@@H](C)[C@H](O[C@H]3C[C@@](C)(OC)[C@@H](O)[C@H](C)O3)[C@@H](C)C(=O)O[C@H](CC)[C@@](C)(O)[C@H](O)[C@@H](C)C(=O)[C@H](C)C[C@@]2(C)O)O[C@H](C)C[C@@H]1N(C)C [ERYTHROMYCIN PROPIONATE] | Not Active | Not Active | Not Active | Not Active | Not Active | Not Active |  | 
C=C1/C(=C\C=C2/CCC[C@]3(C)[C@@H]([C@H](C)CCCC(C)C)CC[C@@H]23)C[C@@H](O)C[C@@H]1O [ALFACALCIDOL] | Not Active | Not Active | Not Active | Not Active | Not Active | Not Active |  | 
CS(=O)(=O)OCCCCOS(C)(=O)=O [BUSULFAN] | Not Active | Not Active | Not Active | Not Active | Not Active | Not Active |  | 
Nc1nc(N)nc(NC2CC2)n1 [CYROMAZINE] | Not Active | Not Active | Not Active | Not Active | Not Active | Not Active |  | 
CN(C(=O)CCCOc1ccc2[nH]c(=O)ccc2c1)C1CCCCC1 [CILOSTAMIDE] | Not Active | Not Active | Not Active | Not Active | Not Active | Not Active |  | 
CN1C[C@H](C(=O)N[C@]2(C)O[C@@]3(O)[C@@H]4CCCN4C(=O)[C@H](Cc4ccccc4)N3C2=O)C[C@@H]2c3cccc4[nH]cc(c34)C[C@H]21 [DIHYDROERGOTAMINE] | Not Active | Not Active | Not Active | Not Active | Not Active | Not Active |  | 
CCC[C@@H]1C[C@@H](C(=O)N[C@@H]([C@H]2O[C@H](SC)[C@H](O)[C@@H](O)[C@H]2O)[C@H](C)Cl)N(C)C1 [CLINDAMYCIN] | Not Active | Not Active | Not Active | Not Active | Not Active | Not Active |  | 
CC(=O)O[C@]1(C(C)=O)CC[C@H]2[C@@H]3C=C(Cl)C4=CC(=O)[C@@H]5C[C@@H]5[C@]4(C)[C@H]3CC[C@@]21C [CYPROTERONE ACETATE] | Not Active | Not Active | Not Active | Not Active | Not Active |  | 37 nM | 4.84 nM
C/C=C\c1ccc(O)c(OC)c1 [ISOEUGENOL] | Not Active | Not Active | Not Active | Not Active | Not Active | Not Active |  | 
Cc1cnc(C(=O)NCCc2ccc(S(=O)(=O)NC(=O)NC3CCCCC3)cc2)cn1 [GLIPIZIDE] | Not Active | Not Active | Not Active | Not Active | Not Active | Not Active |  | 
CC(CCc1ccc(O)cc1)NCCc1ccc(O)c(O)c1 (centres undefined) [DOBUTAMINE] | Not Active | Not Active | Not Active | Not Active | Not Active | Not Active |  | 
Nc1nc(Cl)nc2c1ncn2[C@H]1C[C@H](O)[C@@H](CO)O1 [CLADRIBINE] | Not Active | Not Active | Not Active | Not Active | Not Active | Not Active |  | 

SMILES | IC50 [1] | Ki [1] | IC50 [2] | Ki [2] | IC50 (Vasopressin V1a receptor) | IC50 (Progesterone receptor) | IC50 (Progesterone receptor; read-out: IC50) | Ki (Progesterone receptor; read-out: Ki)
CCn1cc(C(=O)O)c(=O)c2cc(F)c(N3CCNCC3)nc21 [ENOXACIN] | Not Active | Not Active | Not Active | Not Active | Not Active | Not Active |  | 
O=C(O)c1cc(=O)c2c(OCC(O)COc3cccc4oc(C(=O)O)cc(=O)c34)cccc2o1 [CROMOLYN] | Not Active | Not Active | Not Active | Not Active | Not Active | Not Active |  | 
O=P1(N(CCCl)CCCl)NCCCO1 (centres undefined) [CYCLOPHOSPHAMIDE ANHYDROUS] | Not Active | Not Active | Not Active | Not Active | Not Active | Not Active |  | 
CC(C)(Sc1cc(C(C)(C)C)c(O)c(C(C)(C)C)c1)Sc1cc(C(C)(C)C)c(O)c(C(C)(C)C)c1 [PROBUCOL] | Not Active | Not Active | Not Active | Not Active | Not Active | Not Active |  | 
CO[C@@]1(NC(=O)CSCC#N)C(=O)N2C(C(=O)O)=C(CSc3nnnn3C)CS[C@@H]21 [CEFMETAZOLE] | Not Active | Not Active | Not Active | Not Active | Not Active | Not Active |  | 
COc1cc(CNC(=O)CCCC/C=C/C(C)C)ccc1O [CAPSAICIN] | Not Active | Not Active | Not Active | Not Active | Not Active | Not Active |  | 
CC[C@H](C)C(=O)O[C@H]1C[C@@H](C)C=C2C=C[C@H](C)[C@H](CC[C@@H]3C[C@@H](O)CC(=O)O3)[C@H]21 [LOVASTATIN] | Not Active | Not Active | Not Active | Not Active | Not Active | Not Active |  | 
CCOC(=O)[C@H](CCc1ccccc1)N[C@@H](C)C(=O)N1Cc2ccccc2C[C@H]1C(=O)O | Not Active | Not Active | Not Active | Not Active | Not Active | Not Active |  | 
CC[C@H]1OC(=O)[C@H](C)[C@@H](O[C@H]2C[C@@](C)(OC)[C@@H](O)[C@H](C)O2)[C@H](C)[C@@H](O[C@@H]2O[C@H](C)C[C@H](N(C)C)[C@H]2O)[C@](C)(O)C[C@@H](C)CN(C)[C@H](C)[C@@H](O)[C@]1(C)O [AZITHROMYCIN] | Not Active | Not Active | Not Active | Not Active | Not Active | Not Active |  | 
Cc1cccc(Nc2ccccc2C(=O)O)c1C [MEFENAMIC ACID] | Not Active | Not Active | Not Active | Not Active | Not Active | Not Active |  | 
COC(=O)c1ccccc1O [METHYL SALICYLATE] | Not Active | Not Active | Not Active | Not Active | Not Active | Not Active |  | 
CC[C@H](C)C(=O)O[C@H]1C[C@H](O)C=C2C=C[C@H](C)[C@H](CC[C@@H](O)C[C@@H](O)CC(=O)O)[C@H]21 [PRAVASTATIN] | Not Active | Not Active | Not Active | Not Active | Not Active | Not Active |  | 
N[C@@H](Cc1ccc(F)cc1)C(=O)O | Not Active | Not Active | Not Active | Not Active | Not Active | Not Active |  | 
C[C@]12C/C(=C/O)C(=O)C[C@@H]1CC[C@@H]1[C@@H]2CC[C@@]2(C)[C@H]1CC[C@]2(C)O [OXYMETHOLONE] | Not Active | Not Active | Not Active | Not Active | Not Active | Not Active |  | 
NC[C@H]1O[C@H](O[C@H]2[C@H](O)[C@@H](O[C@H]3O[C@H](CO)[C@@H](O)[C@H](N)[C@H]3O)[C@H](N)C[C@@H]2N)[C@H](O)[C@@H](O)[C@@H]1O [KANAMYCIN] | Not Active | Not Active | Not Active | Not Active | Not Active | Not Active |  | 
NC[C@@H]1O[C@H](O[C@H]2[C@@H](O)[C@H](O[C@@H]3[C@@H](O)[C@H](N)C[C@H](N)[C@H]3O[C@H]3O[C@H](CN)[C@@H](O)[C@H](O)[C@H]3N)O[C@@H]2CO)[C@H](N)[C@@H](O)[C@@H]1O [FRAMYCETIN] | Not Active | Not Active | Not Active | Not Active | Not Active | Not Active |  | 
CCOC(=O)[C@H](CCc1ccccc1)N[C@@H](C)C(=O)N1CCC[C@H]1C(=O)O | Not Active | Not Active | Not Active | Not Active | Not Active |  |  | 
